Test systems include SK-MEL-5; SK-MEL-28; SF-295; K562; OVCAR-4; HCC 2998; DMS-114; SK-MEL-2; M19-MEL; HOP-62; KM12; NCI-H460; SNB-78; KM-20L2; SF-268; RXF 393; IGROV-1; NCI-H23; ACHN.
Assay in all cases: NCI-60 cell line screen, 48 h

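Each compound was tested at five concentrations against cells in 96-well plates for 48 hours. Here, GI50 denotes the concentration required for 50% inhibition of growth.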 Active and inactive are the calls of the source. Cut-off read from the data, not from the text of the source: active = GI50 up to about 1.1 µM and inactive = higher. Some results are limits rather than exact numbers.

For `CCOC(=O)Cn1c(=O)[nH]c(=O)c2c1ncn2Cc1ccccc1`, the GI50 in the assay on SK-MEL-5, in the assay with SK-MEL-28, with SF-295, in the assay with K562, in the assay with OVCAR-4 and in the assay with HCC 2998 was > 100 µM (inactive) throughout. Also, the GI50 in the assay with DMS-114, in the assay on SK-MEL-2, in the assay with M19-MEL, in the assay on HOP-62, in the assay with KM12 and with NCI-H460 was > 100 µM (inactive) in each case. Besides, the GI50 with SNB-78, with KM-20L2, with SF-268, in the assay with RXF 393, in the assay on IGROV-1 and with NCI-H23 was > 100 µM (inactive) throughout. Further, the GI50 in the assay on ACHN is > 100 µM (inactive).
Regarding `C/C=N\N1C(=O)c2ccccc2C1=O`, the GI50 with SK-MEL-5, in the assay with SK-MEL-28, in the assay on SF-295, in the assay on K562, with OVCAR-4 and in the assay on HCC 2998 was > 100 µM (inactive) throughout. The GI50 with DMS-114, with SK-MEL-2, in the assay on M19-MEL, in the assay on HOP-62, in the assay with KM12 and in the assay with NCI-H460 was > 100 µM (inactive) in each case. The GI50 in the assay with SNB-78, in the assay with KM-20L2, with SF-268, with RXF 393, in the assay with IGROV-1 and with NCI-H23 was > 100 µM (inactive) throughout. For the same compound, in the assay on ACHN, the GI50 was > 100 µM (inactive).
`O=C(O)[C@H](NS(=O)(=O)c1ccc(F)cc1)c1ccccc1`: the GI50 with SK-MEL-5, with SK-MEL-28, in the assay on SF-295, in the assay with K562, in the assay with OVCAR-4 and with HCC 2998 was > 100 µM (inactive) throughout. For the same compound, the GI50 in the assay with DMS-114, in the assay with SK-MEL-2, with M19-MEL, in the assay on HOP-62, with NCI-H460 and with SNB-78 was > 100 µM (inactive) throughout. The GI50 in the assay with KM-20L2, with SF-268, with RXF 393, with IGROV-1, with NCI-H23 and with ACHN was > 100 µM (inactive) throughout.
Turning to `Cc1cc(N(CCC#N)CCC#N)ccc1/C(Sc1ccccc1)=C(\NC(=O)/C=C/c1ccccc1)C(=O)Sc1ccccc1`, the GI50 in the assay with SK-MEL-5 was 2.77 µM (inactive); in the assay on SK-MEL-28, 4.99 µM (inactive); in the assay on SF-295 it was 3.17 µM (inactive); in the assay on K562 it was 2.41 µM (inactive); in the assay with OVCAR-4, 3.06 µM (inactive); in the assay on HCC 2998 it was 11.4 µM (inactive). Further, the GI50 with DMS-114 was 1.54 µM (inactive); in the assay with SK-MEL-2 it was 3.42 µM (inactive); with M19-MEL, 3.22 µM (inactive); with HOP-62, 2.56 µM (inactive); in the assay on KM12, 3.14 µM (inactive); in the assay on NCI-H460 it was 7.01 µM (inactive). The GI50 with SNB-78 was 3.33 µM (inactive); with KM-20L2 it was 2.14 µM (inactive); with SF-268, 0.565 µM (active); in the assay on RXF 393 it was 1.56 µM (inactive); with IGROV-1 it was 0.805 µM (active); with NCI-H23, 2.22 µM (inactive). In addition, in the assay on ACHN, the GI50 was 4.75 µM (inactive).
Turning to `Cc1nc(N)nc(N)c1CCCCc1ccccc1`, the GI50 in the assay with SK-MEL-5 was 4.39 µM (inactive); in the assay with SK-MEL-28 it was > 10 µM (inactive); in the assay on SF-295 it was 6.65 µM (inactive); in the assay with K562, 0.841 µM (active); in the assay with OVCAR-4 it was 58.6 µM (inactive); in the assay with HCC 2998, 10.7 µM (inactive). Further, the GI50 in the assay with DMS-114 was 5.02 µM (inactive); in the assay with SK-MEL-2 it was 16.7 µM (inactive); in the assay with M19-MEL, 12.4 µM (inactive); in the assay on HOP-62, 13.6 µM (inactive); in the assay on KM12 it was 18.1 µM (inactive); in the assay with NCI-H460, 3.32 µM (inactive). Moreover, the GI50 was 35.3 µM (inactive) with SNB-78; 10.8 µM (inactive) in the assay on KM-20L2; 11 µM (inactive) with SF-268; 11.1 µM (inactive) with RXF 393; 5.41 µM (inactive) in the assay on IGROV-1; 4.29 µM (inactive) in the assay on NCI-H23. Besides, the GI50 in the assay on ACHN is 9.2 µM (inactive).
`C=C[Si](C)(C)COC(=O)/C(C#N)=C/C=C/c1ccccc1`: the GI50 is > 100 µM (inactive) in the assay with SK-MEL-5; > 100 µM (inactive) in the assay with SK-MEL-28; > 100 µM (inactive) in the assay on SF-295; 59 µM (inactive) in the assay with K562; > 100 µM (inactive) in the assay on OVCAR-4; > 100 µM (inactive) in the assay with HCC 2998. Further, the GI50 was > 100 µM (inactive) in the assay with DMS-114; > 100 µM (inactive) with SK-MEL-2; 99.5 µM (inactive) in the assay on M19-MEL; > 100 µM (inactive) in the assay with HOP-62; > 100 µM (inactive) with KM12; > 100 µM (inactive) in the assay with NCI-H460. In addition, the GI50 in the assay on SNB-78 is > 100 µM (inactive); in the assay with KM-20L2, > 100 µM (inactive); in the assay on SF-268 it was > 100 µM (inactive); with RXF 393, 40.6 µM (inactive); in the assay on IGROV-1 it was > 100 µM (inactive); in the assay on NCI-H23, > 100 µM (inactive). Also, in the assay on ACHN, the GI50 was > 100 µM (inactive).
`Nc1c(-c2nc3ccccc3[nH]2)sc(=S)n1-c1ccccc1`: the GI50 is > 100 µM (inactive) in the assay with SK-MEL-5; > 100 µM (inactive) in the assay with SK-MEL-28; 72.8 µM (inactive) in the assay on SF-295; 53.8 µM (inactive) with K562; > 100 µM (inactive) in the assay on OVCAR-4; > 100 µM (inactive) in the assay with HCC 2998. For the same compound, the GI50 is 96.2 µM (inactive) in the assay on DMS-114; > 100 µM (inactive) in the assay on SK-MEL-2; > 100 µM (inactive) in the assay on M19-MEL; > 100 µM (inactive) in the assay with HOP-62; > 100 µM (inactive) in the assay with KM12; > 100 µM (inactive) in the assay on NCI-H460. Also, the GI50 in the assay on SNB-78 was > 100 µM (inactive); in the assay on KM-20L2, > 10 µM (inactive); with SF-268, > 100 µM (inactive); in the assay with RXF 393 it was 46.9 µM (inactive); in the assay with IGROV-1, > 100 µM (inactive); in the assay with NCI-H23 it was > 100 µM (inactive). For the same compound, the GI50 with ACHN was 18.4 µM (inactive).
Take `O=[N+]([O-])c1ccc(C2=Nn3c(nnc3-c3ccccc3)SC2)o1`: the GI50 with SK-MEL-5 was 17.7 µM (inactive); in the assay on SK-MEL-28 it was 29.2 µM (inactive); in the assay with SF-295, 17.4 µM (inactive); with K562, 20.4 µM (inactive); in the assay on OVCAR-4, 19.6 µM (inactive); with HCC 2998 it was 18.9 µM (inactive). Further, the GI50 was 19.7 µM (inactive) with DMS-114; 20.9 µM (inactive) in the assay with SK-MEL-2; 18.5 µM (inactive) in the assay on M19-MEL; 44.3 µM (inactive) in the assay with HOP-62; 18 µM (inactive) in the assay with KM12; 18.6 µM (inactive) in the assay with NCI-H460. The GI50 in the assay on SNB-78 is 20.3 µM (inactive); with KM-20L2, 24.7 µM (inactive); in the assay on SF-268 it was 20.2 µM (inactive); with RXF 393, 19.3 µM (inactive); in the assay with IGROV-1 it was 21.8 µM (inactive); in the assay on NCI-H23, 20.6 µM (inactive). Moreover, the GI50 with ACHN was 19.4 µM (inactive).
Regarding `CNC(=O)OCc1nc([S+](C)[O-])n(C)c1COC(=O)NC` (centres undefined), the GI50 with SK-MEL-5 was > 46.5 µM (inactive); with SK-MEL-28, > 100 µM (inactive); with SF-295, > 100 µM (inactive); with K562 it was > 100 µM (inactive); with OVCAR-4 it was > 51.9 µM (inactive); with HCC 2998 it was > 100 µM (inactive). Besides, the GI50 with DMS-114 was > 34.6 µM (inactive); with SK-MEL-2 it was > 100 µM (inactive); in the assay on M19-MEL, > 45.1 µM (inactive); with HOP-62, > 100 µM (inactive); with KM12, > 100 µM (inactive); in the assay on NCI-H460 it was > 100 µM (inactive). Besides, the GI50 in the assay on SNB-78 is > 60.5 µM (inactive); in the assay with KM-20L2 it was > 100 µM (inactive); with SF-268, > 100 µM (inactive); with RXF 393, > 100 µM (inactive); in the assay with IGROV-1 it was > 50.4 µM (inactive); with NCI-H23 it was > 100 µM (inactive). The GI50 in the assay on ACHN was > 24.2 µM (inactive).
As for `COc1ccc(-c2c3ccccc3c(-c3ccc(OC)cc3)c3ccccc23)cc1`, the GI50 with SK-MEL-5, in the assay with SK-MEL-28, with SF-295, with K562, with OVCAR-4 and in the assay on HCC 2998 was > 100 µM (inactive) each time. The GI50 in the assay on DMS-114, in the assay with SK-MEL-2, in the assay on M19-MEL, in the assay with HOP-62, in the assay on KM12 and in the assay with NCI-H460 was > 100 µM (inactive) throughout. In addition, the GI50 with SNB-78, with KM-20L2, in the assay with SF-268, in the assay with RXF 393, with IGROV-1 and in the assay on NCI-H23 was > 100 µM (inactive) in each case. In addition, in the assay with ACHN, the GI50 was > 100 µM (inactive).

The values above are taken from ChEMBL document CHEMBL1201862, “PubChem BioAssay data set” (2004).
